What all share (format): in vivo
Test [1] has as its system Galium (catchweed bedstraw, Galium aparine). Briefly: Test A postemergence. Particulars: Galium, post-emergence, 240 h; for pest or weed control at 125 g/ha: 125 g ai/ha, postemergence; for pest or weed control at 500 g/ha: Postemergence, 500 g ai/ha, visual injury, approx. 10 d. In a few lines: (§1)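 Preemergence soil spray on seeded pots or post-emergence spray on 1–2 leaf plants, in loam–sand blend. Greenhouse ~10 d. Visual rating 0–100 against untreated plants.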

In another test the test system is Kochia (Kochia scoparia). Briefly: Test A postemergence. The settings on record: Bassia scoparia, post-emergence, 240 h; for pest or weed control at 125 g/ha: 125 g ai/ha, postemergence; for pest or weed control at 500 g/ha: Postemergence, 500 g ai/ha, visual injury, approx. 10 d. Summed up:
as §1

In test [2] the test system is barnyardgrass (Echinochloa crus-galli). Briefly: Test A postemergence. Particulars: Echinochloa crus-galli, post-emergence, 240 h; for pest or weed control at 125 g/ha: 125 g ai/ha, postemergence; for pest or weed control at 500 g/ha: Postemergence, 500 g ai/ha, visual injury, approx. 10 d. In a few lines:
as §1

Test [3] has as its system blackgrass (Alopecurus myosuroides). Nature of the test: Test A postemergence. Particulars: Alopecurus myosuroides, post-emergence, 240 h; for pest or weed control at 125 g/ha: 125 g ai/ha, postemergence; for pest or weed control at 500 g/ha: Postemergence, 500 g ai/ha, visual injury, approx. 10 d. Summed up:
as §1

For another test, the system named is corn (Zea mays). Nature of the test: Test A postemergence. Particulars: Zea mays, post-emergence, 240 h; for plant injury at 125 g/ha: visual injury vs untreated controls after approx. 10 d, 0 = no effect, 100 = complete control, read-out: Corn plant response rating (0 to 100 scale); for Corn plant response rating (crop injury, 0 = no effect, 100 = complete kill) at 500 g/ha: Postemergence, 500 g ai/ha, visual injury, approx. 10 d. Summed up: as §1

Test [4] deals with giant foxtail (Setaria faberii). Briefly: Test A postemergence. The settings on record: Setaria faberi, post-emergence, 240 h; for pest or weed control at 125 g/ha: 125 g ai/ha, postemergence; for pest or weed control at 500 g/ha: Postemergence, 500 g ai/ha, visual injury, approx. 10 d. Summed up: as §1
For test [5], the system named is pigweed (Amaranthus retroflexus). Nature of the test: Test A postemergence. Particulars: Amaranthus retroflexus, post-emergence, 240 h; for pest or weed control at 125 g/ha: 125 g ai/ha, postemergence; for pest or weed control at 500 g/ha: Postemergence, 500 g ai/ha, visual injury, approx. 10 d. In a few lines: as §1
Test [6] relates to ragweed (common ragweed, Ambrosia elatior). Nature of the test: Test A postemergence. Particulars: Ambrosia artemisiifolia, post-emergence, 240 h; for pest or weed control at 125 g/ha: 125 g ai/ha, postemergence; for pest or weed control at 500 g/ha: Postemergence, 500 g ai/ha, visual injury, approx. 10 d. In a few lines: as §1
Test [7] deals with ryegrass, Italian (Italian ryegrass, Lolium multiflorum). Nature of the test: Test A postemergence. Particulars: Lolium multiflorum, post-emergence, 240 h; for pest or weed control at 125 g/ha: 125 g ai/ha, postemergence; for pest or weed control at 500 g/ha: Postemergence, 500 g ai/ha, visual injury, approx. 10 d. Summed up:
as §1

In test [8] the test system is wheat (Triticum aestivum). Briefly: Test A postemergence. Particulars: Triticum aestivum, post-emergence, 240 h, 0 to 100 scale (0 no effect, 100 complete control), read-out: Plant response rating, Wheat; for plant injury at 500 g/ha: Postemergence, 500 g ai/ha, visual injury, approx. 10 d. Summed up:
as §1

The test system of test [9] is barnyardgrass (Echinochloa crus-galli). Briefly: Test B flooded paddy test. The settings on record: Echinochloa crus-galli, 250 g ai/ha, Flood, read-out: Barnyardgrass plant response rating. Summed up: (§2)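 Percent control, visually estimated after 13–15 d in the greenhouse on a 0–100 basis, compares treated pots with untreated ones; compound was put into paddy water 3 cm above the soil when plants had two leaves.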

Test [10] relates to ducksalad (Heteranthera limosa). Nature of the test: Test B flooded paddy test. Particulars: Heteranthera limosa, 250 g ai/ha, Flood, read-out: Ducksalad plant response rating. In a few lines: as §2
The subject of another test is rice (Oryra sativa). Briefly: Test B flooded paddy test. Particulars: Oryza sativa, 250 g ai/ha, Flood, read-out: Rice plant response rating. Summed up: as §2
In test [11] the test system is sedge, umbrella (small-flower umbrella sedge, Cyperus difformis). Nature of the test: Test B flooded paddy test. Particulars: Cyperus difformis, 250 g ai/ha, Flood, read-out: Sedge, Umbrella plant response rating. Summed up:
as §2

Setting [12] is: visual injury vs untreated controls after approx. 10 d, 0 = no effect, 100 = complete control, read-out: Galium plant response rating (0 to 100 scale).
Setting [13] is: 0 to 100 scale (0 no effect, 100 complete control), read-out: Plant response rating, Galium.
[14] abbreviates: visual injury vs untreated controls after approx. 10 d, 0 = no effect, 100 = complete control, read-out: Kochia plant response rating (0 to 100 scale).
The mark [15] stands for this setting: 0 to 100 scale (0 no effect, 100 complete control), read-out: Plant response rating, Kochia.
The mark [16] stands for this setting: visual injury vs untreated controls after approx. 10 d, 0 = no effect, 100 = complete control, read-out: Barnyardgrass plant response rating (0 to 100 scale).
The mark [17] stands for this setting: 0 to 100 scale (0 no effect, 100 complete control), read-out: Plant response rating, Barnyardgrass.
The mark [18] stands for this setting: visual injury vs untreated controls after approx. 10 d, 0 = no effect, 100 = complete control, read-out: Blackgrass plant response rating (0 to 100 scale).
[19] abbreviates: 0 to 100 scale (0 no effect, 100 complete control), read-out: Plant response rating, Blackgrass.
Where [20] appears, read: 0 to 100 scale (0 no effect, 100 complete control).
The mark [21] stands for this setting: visual injury vs untreated controls after approx. 10 d, 0 = no effect, 100 = complete control, read-out: Foxtail, Giant plant response rating (0 to 100 scale).
[22] abbreviates: 0 to 100 scale (0 no effect, 100 complete control), read-out: Plant response rating, Foxtail, Giant.
[23] abbreviates: visual injury vs untreated controls after approx. 10 d, 0 = no effect, 100 = complete control, read-out: Pigweed plant response rating (0 to 100 scale).
Setting [24] is: 0 to 100 scale (0 no effect, 100 complete control), read-out: Plant response rating, Pigweed.
Where [25] appears, read: visual injury vs untreated controls after approx. 10 d, 0 = no effect, 100 = complete control, read-out: Ragweed plant response rating (0 to 100 scale).
Where [26] appears, read: 0 to 100 scale (0 no effect, 100 complete control), read-out: Plant response rating, Ragweed.
Setting [27] is: visual injury vs untreated controls after approx. 10 d, 0 = no effect, 100 = complete control, read-out: Ryegrass, Italian plant response rating (0 to 100 scale).
Where [28] appears, read: 0 to 100 scale (0 no effect, 100 complete control), read-out: Plant response rating, Ryegrass, Italian.
The mark [29] stands for this setting: 0 to 100 scale where 0 is no effect and 100 is complete control.
[30] abbreviates: scale of 0 to 100 where 0 is no effect and 100 is complete control.

The values that follow come from patent US12077503B2, “Substituted cyclic amides and their use as herbicides” (FMC CORPORATION, priority 2015, dated 2024).

Structures are written as SMILES. Read-outs that look alike come from different tables or passages of the source.

As for `CN1C[C@H](c2ccc(C(F)F)cc2)[C@@H](C(=O)Nc2ccc(F)c(F)c2F)C1=O` [Compound 1260], the pest or weed control at 125 g/ha worked out at 70% in [1] (setting [12]); 60% with Kochia (Kochia scoparia) (setting [14]); 90% in test [2] (setting [16]); 70% in test [3] (setting [18]); 80% in [4] (setting [21]); 50% in test [5] (setting [23]). For the same molecule, the results for the pest or weed control at 125 g/ha in [6] (setting [25]) and in [7] (setting [27]) were 50% and 60%, respectively. Besides, the pest or weed control at 500 g/ha in test [1] (setting [13]) stood at 70%; with Kochia (Kochia scoparia) (setting [15]) it was 70%; in [2] (setting [17]), 90%; in test [3] (setting [19]), 80%; in [4] (setting [22]) it was 90%; in test [5] (setting [24]) it was 70%. Further, the pest or weed control at 500 g/ha in [6] (setting [26]) came out at 70%; in test [7] (setting [28]), 80%. Also, the plant injury at 125 g/ha in the test with corn (Zea mays) (125 g ai/ha, postemergence) stood at 90%. The Corn plant response rating (crop injury, 0 = no effect, 100 = complete kill) at 500 g/ha in the test with corn (Zea mays) (setting [20]) worked out at 90%. The plant injury at 500 g/ha in test [8] amounted to 90%. Besides, the pest or weed control at 250 g/ha was found to be 80% in [9] (setting [29]), 100% in test [10] (setting [29]), 50% in the test with rice (Oryra sativa) (setting [29]) and 0% in [11] (setting [29]).
For the molecule `CCc1cc(CC)cc([C@H]2CN(C)C(=O)[C@@H]2C(=O)Nc2cccc(F)c2F)c1` [Compound 736], the pest or weed control at 125 g/ha came to 50% in test [1] (visual injury after approximately 10 d, 0 to 100 scale (0 no effect, 100 complete control), read-out: Plant response rating, Galium); 20% with Kochia (Kochia scoparia) (visual injury after approximately 10 d, 0 to 100 scale (0 no effect, 100 complete control), read-out: Plant response rating, Kochia); 90% in test [2] (visual injury after approximately 10 d, 0 to 100 scale (0 no effect, 100 complete control), read-out: Plant response rating, Barnyardgrass); 60% in [3] (visual injury after approximately 10 d, 0 to 100 scale (0 no effect, 100 complete control), read-out: Plant response rating, Blackgrass); 90% in test [4] (visual injury after approximately 10 d, 0 to 100 scale (0 no effect, 100 complete control), read-out: Plant response rating, Foxtail, Giant); 20% in test [5] (visual injury after approximately 10 d, 0 to 100 scale (0 no effect, 100 complete control), read-out: Plant response rating, Pigweed). In addition, the pest or weed control at 125 g/ha in test [6] (visual injury after approximately 10 d, 0 to 100 scale (0 no effect, 100 complete control), read-out: Plant response rating, Ragweed) was found to be 0%; in test [7] (visual injury after approximately 10 d, 0 to 100 scale (0 no effect, 100 complete control), read-out: Plant response rating, Ryegrass, Italian), 80%. Further, in the test with corn (Zea mays) (125 g ai/ha, postemergence, visual injury after approximately 10 d, 0 to 100 scale (0 no effect, 100 complete control)), the Corn plant response rating (crop injury, 0 = no effect, 100 = complete kill) at 125 g/ha stood at 90%. Besides, the plant injury at 125 g/ha in test [8] (125 g ai/ha, postemergence, visual injury after approximately 10 d) is 50%. Besides, the pest or weed control at 250 g/ha in test [9] (setting [30]) amounted to 40%; in test [10] (setting [30]), 40%; in the test on rice (Oryra sativa) (setting [30]), 0%; in test [11] (setting [30]) it was 0%.
As for `CN1C[C@H](c2ccc(F)c(C#N)c2)[C@@H](C(=O)Nc2cccc(F)c2F)C1=O` [Compound 1255], the pest or weed control at 125 g/ha in test [1] (setting [12]) was found to be 40%; with Kochia (Kochia scoparia) (setting [14]), 20%; in test [2] (setting [16]), 90%; in test [3] (setting [18]), 0%; in test [4] (setting [21]), 80%; in test [5] (setting [23]), 0%. The pest or weed control at 125 g/ha in [6] (setting [25]) was 0%; in test [7] (setting [27]), 20%. Besides, the pest or weed control at 500 g/ha in test [1] (setting [13]) amounted to 60%; in the test with Kochia (Kochia scoparia) (setting [15]), 50%; in test [2] (setting [17]) it was 100%; in test [3] (setting [19]) it was 60%; in test [4] (setting [22]), 80%; in test [5] (setting [24]), 30%. Further, the pest or weed control at 500 g/ha in test [6] (setting [26]) and in test [7] (setting [28]) was 40% throughout. Further, in the test with corn (Zea mays) (125 g ai/ha, postemergence), the plant injury at 125 g/ha was 60%. Further, in the test with corn (Zea mays) (setting [20]), the Corn plant response rating (crop injury, 0 = no effect, 100 = complete kill) at 500 g/ha amounted to 90%. Moreover, in test [8], the plant injury at 500 g/ha was determined as 60%. Moreover, the pest or weed control at 250 g/ha is 65% in test [9] (setting [29]), 100% in test [10] (setting [29]), 0% in the test with rice (Oryra sativa) (setting [29]) and 0% in test [11] (setting [29]).
